Source: patent publication US20230357179A1, “RAF KINASE INHIBITORS AND METHODS OF USE THEREOF” (Deciphera Pharmaceuticals, LLC, priority 2021, published 2023)

Key:
B-Raf kinase = target: T1, B-Raf kinase (Homo sapiens, UniProt P15056); assay: Biochemical assay for B-Raf.1 (coupled pyruvate kinase/lactate dehydrogenase); conditions: read-out: BRAF.1 IC50
T1 construct: GST (N); purchased Sigma
In short: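 Reaction rates over the 4–5 h window of a continuous 6 h, 30 °C read were converted to percent inhibition and fitted for IC50. B-Raf (0.13 nM) phosphorylated 30.1 nM MEK with 1 mM ATP; ADP coupled via PK/LDH to NADH loss at 340 nm, 1% DMSO final.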

A375 cells = assay: A375 cell proliferation assay (1), resazurin, 96-well; assay type: cell-based; conditions: Homo sapiens, A-375, inhibition of cell proliferation
In short: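 Viability was read by resazurin fluorescence at 540 nm excitation and 600 nm emission, using a 440 μM solution added for 5–6 h at the end of culture. IC50 came from the curve fit.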

WM3928 cells = assay: WM3928 cell proliferation assay (1), resazurin, 96-well; assay type: cell-based; conditions: inhibition of cell proliferation
Method: WM3928 Cell Proliferation Assay (1)
WM3928 cells (#WM3928-01-0001) are obtained from Rockland Immunochemicals Inc (Gilbertsville, PA). Briefly, cells were grown in MCDB 153 medium (Sigma, #M7403, St. Louis, MO) supplemented with 20% Leibovitz's L-15 (ThermoFisher #11415-064, Waltham, MA), 2% heat inactivated fetal bovine serum (ThermoFisher, #A3840001, Waltham, MA), 5 μg/mL Insulin (Bovine Pancreas) (Sigma, #I0516, St. Louis, MO), 1.68 mM Calcium Chloride (Sigma, #C-34006, St. Louis, MO) and 1% Penicillin/Streptomycin/L-Glutamine (ThermoFisher #10378016, Waltham, MA) at 37° C., 5% CO2, and 95% humidity. Cells are expanded until reaching 70-95% confluency at which point they are subcultured or harvested for assay use. A serial dilution of test compound is dispensed into a 96-well black clear bottom plate in triplicate. Three thousand cells are added per well in 200 μL complete growth medium in the 96-well plate. Plates are incubated for 67-72 hours at 37° C., 5% CO2, and 95% humidity. At the end of the incubation, 40 μL of a 440 μM solution of resazurin (Sigma, #199303, St. Louis, MO) in PBS is added to each well of the plate and plates are incubated for an additional 6-7 hours at 37° C., 5% CO2, and 95% humidity. Plates are read on a Synergy2 or equivalent reader (Biotek, Winooski VT) using an excitation of 540 nm and an emission of 600 nm. Data is analyzed using Prism software (GraphPad, San Diego, CA) to calculate IC50 values.

Miapaca-2 cells = assay: MiaPaca-2 cell proliferation assay (1), resazurin, 96-well; assay type: cell-based; conditions: Homo sapiens, MIA PaCa-2, inhibition of cell proliferation
In short: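 Three thousand cells per well in DMEM with 10% FBS and 2.5% horse serum exposed to serially diluted compound in triplicate for 67-72 h at 37 °C, 5% CO2. Viability by resazurin (additional 5-6 h), fluorescence ex 540/em 600 nm; IC50 calculated.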

T1 sequence (P15056 416-766): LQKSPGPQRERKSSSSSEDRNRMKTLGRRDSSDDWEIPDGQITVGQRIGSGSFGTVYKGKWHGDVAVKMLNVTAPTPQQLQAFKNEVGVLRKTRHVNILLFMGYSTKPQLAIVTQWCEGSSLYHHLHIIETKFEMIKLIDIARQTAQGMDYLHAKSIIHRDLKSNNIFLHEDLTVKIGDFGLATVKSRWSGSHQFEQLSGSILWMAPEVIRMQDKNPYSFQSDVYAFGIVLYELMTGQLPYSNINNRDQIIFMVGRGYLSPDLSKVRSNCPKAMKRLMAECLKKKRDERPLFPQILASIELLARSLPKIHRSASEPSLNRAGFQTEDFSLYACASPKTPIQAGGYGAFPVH

Compound	IC50 (B-Raf kinase) [nM]	IC50 (A375 cells) [nM]	IC50 (WM3928 cells) [nM]	IC50 (Miapaca-2 cells) [nM]
COC(=O)Nc1cc(-c2cncc(-c3cc(NC(=O)N4CC[C@H](C(F)(F)F)C4)ccc3C)c2)ccn1 [Example 211]	≤ 100	500 to 1000	100 to 500	
COC(=O)Nc1cc(-c2cc(-c3cc(NC(=O)NCCC4(C)CC4)c(F)cc3F)cc(OCCO)n2)ccn1 [Example 188]	≤ 100	500 to 1000		
Cc1ccc(NC(=O)N2CC[C@H](C(F)(F)F)C2)cc1-c1cncc(-c2ccnc(NC(=O)C3CC3)c2)c1 [Example 197]	≤ 100	100 to 500	100 to 500	
CNC(=O)c1cc(-c2cc(-c3cc(NC(=O)Nc4ccnc(C(C)(C)C#N)c4)ccc3C)ccn2)ccn1 [Example 69]	≤ 100	1000 to 10000		1000 to 10000
COC(C)(C)CCNC(=O)Nc1cc(-c2cnnc(-c3ccnc(NC(=O)C4CC4)c3)c2)c(C)cc1F [Example 173]	≤ 100	500 to 1000		
CNC(=O)c1cc(-c2cc(-c3cc(NC(=O)NC4CCCCC4)c(F)cc3C)cc(OCCO)n2)ccn1 [Example 205]	≤ 100	100 to 500		1000 to 10000
CC(=O)Nc1cc(-c2cc(-c3cc(NC(=O)NC4CCC(F)(F)CC4)c(F)cc3C)cc(OCCO)n2)ccn1 [Example 63]	≤ 100	≤ 100		1000 to 10000
COC[C@H]1CCN(C(=O)Nc2cnc(C)c(-c3ccnc(-c4ccnc(NC(=O)OC)c4)c3)c2)C1 [Example 176]	> 1000	1000 to 10000		
CNC(=O)c1cc(-c2cnnc(-c3cc(NC(=O)N4CC[C@@H](OC(F)(F)F)C4)ccc3C)c2)ccn1 [Example 182]	500 to 1000	1000 to 10000		
CC(=O)Nc1cc(-c2cc(-c3cc(NC(=O)NCCC(C)(C)C#N)c(F)cc3C)cc(C3CC3)n2)ccn1 [Example 59]	≤ 100	1000 to 10000		1000 to 10000
CC(=O)Nc1cc(-c2cc(-c3cc(NC(=O)NCCC4(C)CC4)c(F)cc3C)cc(C3CC3)n2)ccn1 [Example 51]	≤ 100	1000 to 10000		1000 to 10000
Cc1ccc(NC(=O)Nc2cn(C)nc2C(F)(F)F)cc1-c1cc(OCCO)nc(N2CCOCC2)c1 [Example 42]	> 1000	1000 to 10000		1000 to 10000
Cc1ccc(NC(=O)N2CCC(CC(F)(F)F)C2)cc1-c1cncc(-c2cc(NC(=O)C3CC3)ncn2)c1 (stereo not drawn) [Example 194]	≤ 100	≤ 100	≤ 100	
COC(C)(C)CCNC(=O)Nc1ccc(C)c(-c2cc(-c3ccnc(NC(C)=O)c3)n(C)c(=O)c2)c1 [Example 60]	> 1000	1000 to 10000		1000 to 10000
COC(=O)Nc1cc(-c2cc(-c3cc(NC(=O)NCCC4(C)CC4)ccc3F)cc(OCCO)n2)ccn1 [Example 187]	≤ 100	1000 to 10000		
COC(=O)Nc1cc(-c2cncc(-c3cc(NC(=O)N4CCCC4)ccc3C)c2)ccn1 [Example 213]	> 1000	1000 to 10000	1000 to 10000	
COC(C)(C)CCNC(=O)Nc1ccc(C)c(-c2cc(-c3cnn(C)c3)nc(N3CCOCC3)c2)c1 [Example 38]	≤ 100	1000 to 10000		1000 to 10000
CC(=O)Nc1cc(-c2cc(-c3cc(NC(=O)N[C@H]4C[C@](C)(F)C4)ccc3C)cc(OCCO)n2)ccn1 [Example 49]	≤ 100	1000 to 10000		1000 to 10000
CC(=O)Nc1cc(-c2cc(-c3cc(NC(=O)Nc4ccc(C(F)(F)F)cc4)cnc3C)ccn2)ccn1 [Example 48]	≤ 100	1000 to 10000		1000 to 10000
Cc1ccc(NC(=O)Nc2ccnc(C(C)(C)C#N)c2)cc1-c1ccnc(-c2ccnc(C(=O)NC3CC3)c2)c1 [Example 68]	≤ 100	1000 to 10000		1000 to 10000
Cc1ccc(NC(=O)N2CC[C@@H](C(F)(F)F)C2)cc1-c1cncc(-c2ccnc(NC(=O)C3CC3)c2)c1 [Example 196]	≤ 100	1000 to 10000	500 to 1000	
CC(=O)Nc1cc(-c2cc(-c3cc(NC(=O)NCCC4(C(F)(F)F)CC4)c(F)cc3C)cc(C3CC3)n2)ccn1 [Example 54]	≤ 100	100 to 500		1000 to 10000

Compound	IC50 (B-Raf kinase) [nM]	IC50 (A375 cells) [nM]	IC50 (WM3928 cells) [nM]	IC50 (Miapaca-2 cells) [nM]
COC(=O)Nc1cc(-c2nc(OCCO)cc(-c3cc(NC(=O)NC4CC(C)(C)C4)cnc3C)n2)ccn1 [Example 174]	100 to 500	1000 to 10000		
COC(=O)Nc1cc(-c2nccc(-c3cc(NC(=O)N4CCC(C(F)(F)F)C4)ccc3C)n2)ccn1 (stereo not drawn) [Example 193]	≤ 100	1000 to 10000		
Cc1ccc(NC(=O)Nc2cnc(C(F)(F)F)s2)cc1-c1cc(OCCO)nc(N2CCOCC2)c1 [Example 43]	100 to 500	≤ 100		100 to 500
CC(=O)Nc1cc(-c2cc(-c3cc(NC(=O)NC4CC(C)(C)C4)c(F)cc3C)cc(OCCO)n2)ccn1 [Example 47]	≤ 100	≤ 100		500 to 1000
Cc1ccc(NC(=O)N[C@H]2C[C@](C)(F)C2)cc1-c1cc(-c2ccnc(NC(=O)C3CC3)c2)nc(C2CC2)c1 [Example 61]	≤ 100	1000 to 10000		1000 to 10000
Cc1ccc(NC(=O)NCCC(C)(C)C)cc1-c1ccnc(N2CCOCC2)c1 [Example 18]	≤ 100	1000 to 10000		1000 to 10000
CNC(=O)c1cc(-c2cnnc(-c3cc(NC(=O)N4CCC(C(C)(C)C)C4)cnc3C)c2)ccn1 (stereo not drawn) [Example 184]	> 1000	1000 to 10000		
CC(=O)Nc1cc(-c2cc(-c3cc(NC(=O)NC4CCCCC4)c(F)cc3C)cc(OCCO)n2)ccn1 [Example 53]	≤ 100	≤ 100		500 to 1000
CNC(=O)c1cc(-c2cnnc(-c3cc(NC(=O)N4CCC(C(C)(C)C)C4)ccc3C)c2)ccn1 (stereo not drawn) [Example 180]	500 to 1000	100 to 500		
CNC(=O)c1cc(-c2cnnc(-c3cc(NC(=O)N4CC[C@H](OC)C4)ccc3C)c2)ccn1 [Example 177]	> 1000	1000 to 10000		
Cc1ccc(NC(=O)N[C@H]2C[C@](C)(F)C2)cc1-c1cc(OCCO)nc(-c2ccnc(NC(=O)CN(C)C)c2)c1 [Example 50]	≤ 100	1000 to 10000		1000 to 10000
COC[C@@H]1CCN(C(=O)Nc2cnc(C)c(-c3ccnc(-c4ccnc(NC(=O)OC)c4)c3)c2)C1 [Example 179]	> 1000	1000 to 10000		
CNC(=O)c1cc(-c2cnnc(-c3cc(NC(=O)N4CCC5(CC5)C4)ccc3C)c2)ccn1 [Example 178]	> 1000	1000 to 10000		
COC(C)(C)CCNC(=O)Nc1cc(-c2cccc(-c3ccnc(NC(C)=O)c3)c2)c(C)cc1F [Example 71]	≤ 100	1000 to 10000		1000 to 10000
CC(=O)Nc1cc(-c2cc(-c3cc(NC(=O)NCCC4(C)CC4)ccc3C)cc(N3CCOCC3)n2)ccn1 [Example 57]	≤ 100	100 to 500		1000 to 10000
CNC(=O)c1cc(-c2cccc(-c3cc(NC(=O)NCCC(C)(C)OC)c(F)cc3C)c2)ccn1 [Example 72]	100 to 500	1000 to 10000		1000 to 10000
CC(=O)Nc1cc(-c2cc(-c3cc(NC(=O)NCC45CC(F)(C4)C5)c(F)cc3C)cc(OCCO)n2)ccn1 [Example 52]	≤ 100	1000 to 10000		1000 to 10000
Cc1cc(F)c(NC(=O)NCCC2(C(F)(F)F)CC2)cc1-c1cc(OCCO)nc(C2CCOCC2)c1 [Example 24]	≤ 100	100 to 500		1000 to 10000
CC(=O)Nc1cc(-c2cc(-c3cc(NC(=O)NCCC4(C)CC4)c(F)cc3C)cc(NCCO)n2)ccn1 [Example 175]	≤ 100	100 to 500		
CNC(=O)c1cc(-c2cnnc(-c3cc(NC(=O)N4CC[C@@H](OC)C4)ccc3C)c2)ccn1 [Example 181]	> 1000	1000 to 10000		
COC(=O)Nc1cc(-c2cnnc(-c3cc(NC(=O)N4CCC(C(C)(C)C)C4)ccc3C)c2)ccn1 (stereo not drawn) [Example 185]	100 to 500	100 to 500		
CC(=O)Nc1cc(-c2cc(-c3cc(NC(=O)NCCC4(C)CC4)c(F)cc3C)cc(C)n2)ccn1 [Example 55]	≤ 100	1000 to 10000		1000 to 10000
